Data published in US20030166139A1 (priority 2001, published 2003).
Read-outs that look alike come from different tables or passages of the source.

Tests used:
[1] = test system: EDIM rotavirus; design: species or system mice; conditions: mouse, in vivo
[2] = in vivo; cited from earlier work

With CAINAPANIQQFEHIVQLRRVLTTA [compound 1] the “% Protection” value [1] was 0%.
For “FNPVILRPNNVEVEFLLNGQVINTYQARF [compound 4]”, the “% Protection” value [1] was 77%.
For “FSFPRVINSADGATTWYFNPVILRPNNVEV [compound 3]”, the “% Protection” value [1] was 58%.
For “HATVLTLRIDSAICESVLADASETMLANV [compound 8]”, the “% Protection” value [1] was 51%.
With “MTPAVTALFPNAQPFEHHATVGLTLRIDSA [compound 7]” the “% Protection” value [1] was 0%.
With “NGQVINTYQARFGTIVARNFDTIRLSFQLM [compound 5]” the “% Protection” value [1] was 0%.
In the case of PDAERFSFPRVINSADGA [compound 2], the “% Protection” value [1] is reported as 70%.
With “QEYAIPVGPVFPPGMNWTDLITNYSPSRED [compound 10]” the “% Protection” value [1] was 0%.
For QS-21 [reference compound], the “% Protection from rotavirus shedding” value [1] is listed as 43%, the “% Protection from rotavirus shedding” value ([1]; po) is listed as 71% and the “safety in human clinical trials” value [2] is listed as “safe”.
For RLSFQLMRPPNMTP [Peptide #6-14], the “% Protection” value [1] was 98%.
With RNFDTIRLSFQLMRPPNMTPAVTAL [Peptide #6] the “% Protection” value [1] was 85%.
In the case of “TDLITNYSPSREDNLQRVFTVASIRSMLVK [compound 11]”, the “% Protection” value [1] is reported as 65%.
For VLADASETMLANVTSVRQEYAI [compound 9], the “% Protection” value [1] was 0%.
